According to article PMC10721898, “C5 methylation confers accessibility, stability and selectivity to picrotoxinin” (Nature Communications, 2023):
Read-outs that look alike come from different tables or passages of the source.

How the values were obtained:
rat GABAA ion channel = test: Non-selective rat GABAA ion channel [3H]TBOB binding (antagonist radioligand) assay, rat cerebral cortex; conditions: [3H]TBOB displacement, n = 1
Description: The structurally privileged 5-methyl series was assayed for binding to both GABAA receptors (rat cortex membrane preparations) and RDL (expressed in Xenopus oocytes) and compared directly to the parent PXN (C5-H) series. The parallel series of PXN and 5MePXN analogs allowed us to interrogate the effect of the synthetically-enabling and stabilizing C5 methyl. […]
4. Rat GABAA receptors binding assay
Non-selective rat GABAA ion channel [3H] TBOB binding (Antagonist Radioligand) assay was conducted by Eurofins Pharma Discovery Service of Eurofins Cerep, France.
Compound binding was calculated as a % inhibition of the binding of the radioactive ly labeled ligand [3H] TBOB (t‐[3H]Butylbicycloorthobenzoate) for rat GABAA ion channels.9 A 20.0 mM stock solution was prepared in DMSO from each test compound to evaluate radioligand displacement of [3H] TBOB from rat cerebral cortex GABAA receptors at different concentrations.
The results are expressed as a percent of control specific binding measured specific binding*100 […]
and as a percent inhibition of control specific binding
100 − (measured specific binding*100) […]
obtained in the presence of the test compounds.
The IC50 values (concentration causing a half -maximal inhibition of control specific binding) and Hill coefficients (nH) were determined by non -linear regression analysis of th e competition curves generated with mean replicate values using Hill equation curve fitting […]
where Y = specific binding, A = left asymptote of the curve, D = right asymptote of the curve , C = compound concentration, C 50 = IC50, and nH = slope factor. This analysis was performed using software developed at Cerep (Hill software) and validated by comparison with data generated by th e commercial software SigmaPlot® 4.0 for Windows ® (© 1997 by SPSS Inc.).
The inhibition constants (K i) were calculated using the Cheng Prusoff equation where L = concentration of radioligand in the assay, and KD = affinity of the radioligand for the recept or. A scatchard plot is used to determine the K D.
Supplementary Table 8. IC50 values of test compound
(§1) Compound IC50 (µM) Compound IC50 (µΜ)

Drosophila RDL = target: T1, Drosophila RDL (Drosophila melanogaster, UniProt P25123); test: RDL receptors assay: two-electrode voltage clamp electrophysiology in Xenopus oocytes; type: cell-based
T1 construct: expressed in transfected cells; host or cells: Xenopus oocytes (Ecocyte, Austin, TX) microinjected with capped cRNA
T1 sequence (P25123 45-606): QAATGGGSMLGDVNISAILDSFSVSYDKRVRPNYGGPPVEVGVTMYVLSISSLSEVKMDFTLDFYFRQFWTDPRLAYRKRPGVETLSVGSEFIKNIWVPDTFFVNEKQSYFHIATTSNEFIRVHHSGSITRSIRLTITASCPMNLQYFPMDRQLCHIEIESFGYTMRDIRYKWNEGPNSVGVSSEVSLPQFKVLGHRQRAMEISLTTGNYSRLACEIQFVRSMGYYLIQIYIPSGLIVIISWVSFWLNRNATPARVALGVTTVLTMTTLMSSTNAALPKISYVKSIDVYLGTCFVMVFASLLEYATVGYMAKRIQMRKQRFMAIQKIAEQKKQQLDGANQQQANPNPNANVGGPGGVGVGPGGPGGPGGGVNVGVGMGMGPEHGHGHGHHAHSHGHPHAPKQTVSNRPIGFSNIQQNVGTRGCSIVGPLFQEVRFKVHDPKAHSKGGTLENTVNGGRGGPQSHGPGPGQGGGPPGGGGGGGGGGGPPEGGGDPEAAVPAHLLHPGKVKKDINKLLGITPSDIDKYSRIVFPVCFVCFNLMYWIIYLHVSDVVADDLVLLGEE
Description: 5. RDL receptors binding assay
The Drosophila RDL sequence (NP_01261616.1) was cloned into the pGH19 backbone via Gibson assembly for capped cRNA synthesis using the T7 mMessage mMachine kit (Invitrogen). cRNA samples were stored at - 80 °C until use. Ready to inject Xenopus oocytes were obtained from Ecocyte (Austin, TX) and microinjected using a Nanoinject III (Drummond Scientific) with 4 nL of cRNA (1 μg/μL). The oocytes were then incubated at 16 °C in ND96 storage solution (93.5 mM NaCl, 2 mM KCl, 1.8 mM CaCl 2·2H2O, 2 mM MgCl 2·6H2O, 5 mM HEPES at pH 7.5). Recording were made 1 -6 days post injection.
Electrophysiology experiments were performed using an automated two -electrode voltage clamp set -up (Roboocyte 2, Mutlichannel Systems). Recording head were filled with 3M KCl and gave resistan ce of 100-2000 kΩ in medium. Membrane potential was held at -60 mV and current signal was sampled at 20 kHz.
Experiments were performed at room temperature using Modified Barth’s Saline (MBS) (88 mM NaCl, 1 mM KCl, 2.4 mM NaHCO 3, 15 mM HEPES, 0.3 mM Ca(NO3)2, 0.41 mM CaCl 2, and 0.82 mM MgSO 4·7H2O at pH 7.4). Oocytes were perfused with MBS at 5 mL/min in all assays. GABA and all compounds were dissolved in MBS and a 0.1% DMSO negative control was utilized to correct for any solvent effect.
Initial block potential of each compound was assessed utilizing a pre -incubation method (MBS (30 sec), 10 μM GABA (15 sec), MBS wash (60 sec), compound (60 sec), compound + 10 μM GABA (15 sec), compound (60 sec), compound + 10 μM GABA (15 sec), MBS wash (60 sec) with 10 μM of each test compound. The maximum signal of the second co -application was compared to the initial GABA response to determine the % block and then standardized against the corresponding value of the 0.1% DMSO control. Dose responses were performed for any compound showing >50% block in the initial test using 10, 1, and 0.1 μM. The IC50 values were fit using an inhibitor vs response 4 -parameter fit (GraphPad Prism 8.1.2).
Supplementary Table 9. IC50 values of test compound
as §1

RDL = conditions: cited from earlier work
GABAA and RDL receptors = system: GABAA and RDL receptors; set-up: method as in PMID 8982503; conditions: cited from earlier work
[1] = Supplementary Table 8 (5MePXN series)
[2] = block of 10 μM GABA response, pre-incubation, -60 mV, Supplementary Table 9 (5MePXN series), n = 4, read-out: IC50
[3] = Supplementary Table 8 (PXN series)
[4] = block of 10 μM GABA response, pre-incubation, -60 mV, Supplementary Table 9 (PXN series), n = 4, read-out: IC50

| Compound | IC50 (rat GABAA ion channel; [1]) | IC50 (Drosophila RDL; [2]) | IC50 (rat GABAA ion channel; [3]) | IC50 (Drosophila RDL; [4]) | further results |
| --- | --- | --- | --- | --- | --- |
| CC(C)(O)C1C2OC(=O)C1(C)C1(O)CC3OC34C(=O)OC2C41C (stereo not shown) [5MePTN] | > 200000 nM | > 10000 nM | – | – | – |
| CC(C)(O)C1C2OC(=O)C1(C)C1(F)CC3OC34C(=O)OC2C41C (stereo not shown) [6F5MePTN] | > 200000 nM | 1550 nM | – | – | – |
| C=C(C)C1C2OC(=O)C1(C)C1(F)CC3OC34C(=O)OC2C41C (stereo not shown) [6F5MePXN] | 14000 nM | 593 nM | – | – | – |
| CC(C)(F)C1C2OC(=O)C1(C)C1(F)CC3OC34C(=O)OC2C41C (stereo not shown) [6F12F5MePXN] | > 200000 nM | 994 nM | – | – | – |
| CC(C)(F)C1C2OC(=O)C1C1(F)CC3OC34C(=O)OC2C14C (stereo not shown) [6F12FPXN] | – | – | 32000 nM | 2240 nM | – |
| CC(C)C1C2OC(=O)C1(C)C1(F)CC3OC34C(=O)OC2C41C (stereo not shown) [6FH5MePXN] | 52000 nM | 2740 nM | – | – | – |
| CC(C)C1C2OC(=O)C1C1(F)CC3OC34C(=O)OC2C14C (stereo not shown) [6FHPXN] | – | – | 6500 nM | 561 nM | – |
| CC(C)(O)C1C2OC(=O)C1C1(F)CC3OC34C(=O)OC2C14C (stereo not shown) [6FPTN] | – | – | 56000 nM | 4920 nM | – |
| C=C(C)C1C2OC(=O)C1C1(F)CC3OC34C(=O)OC2C14C (stereo not shown) [6FPXN] | – | – | 430 nM | 1050 nM | reported activity at RDL (RDL): lose channel blocking ability |
| C=C(C)C1C2OC(=O)C1(C)C1(O)CC=C3C(=O)OC2C31C (stereo not shown) [8,9do5MePXN] | 9200 nM | 4410 nM | – | – | – |
| C=C(C)C1C2OC(=O)C1C1(O)CC=C3C(=O)OC2C31C (stereo not shown) [8,9doPXN] | – | – | 550 nM | 2600 nM | – |
| CC(C)(F)C1C2OC(=O)C1(C)C1(O)CC3OC34C(=O)OC2C41C (stereo not shown) [12F5MePXN] | 100000 nM | > 10000 nM | – | – | – |
| CC(C)(F)C1C2OC(=O)C1C1(O)CC3OC34C(=O)OC2C14C (stereo not shown) [12FPXN] | – | – | 5400 nM | > 10000 nM | – |
| CC(C)(C)C1C2OC(=O)C1(C)C1(O)CC3OC34C(=O)OC2C41C (stereo not shown) [12Me5MePXN] | 7400 nM | 2880 nM | – | – | – |
| CC(C)(C)C1C2OC(=O)C1C1(O)CC3OC34C(=O)OC2C14C (stereo not shown) [12MePXN] | – | – | 310 nM | 676 nM | – |
| CC1(C2C3OC(=O)C2(C)C2(O)CC4OC45C(=O)OC3C52C)CC1 (stereo not shown) [Cyp5MePXN] | 7700 nM | 1620 nM | – | – | – |
| CC1(C2C3OC(=O)C2C2(O)CC4OC45C(=O)OC3C25C)CC1 (stereo not shown) [CypPXN] | – | – | 390 nM | – | IC50 (Drosophila RDL): 693 nM |
| CC(C)C1C2OC(=O)C1(C)C1(O)CC3OC34C(=O)OC2C41C (stereo not shown) [H5MePXN] | 23000 nM | > 10000 nM | – | – | – |
| CC(C)C1C2OC(=O)C1C1(O)CC3OC34C(=O)OC2C14C (stereo not shown) [HPXN] | – | – | 1000 nM | – | IC50 (Drosophila RDL): 1080 nM |
| CC(C)(O)[C@@H]1[C@H]2OC(=O)[C@@H]1[C@]1(O)C[C@H]3O[C@]34C(=O)O[C@H]2[C@]14C [PTN, picrotin, reference compound] | – | – | 54000 nM | – | IC50 (Drosophila RDL): 834 nM; reported activity at RDL (RDL): inactivity |
| picrodendrin O | – | – | – | – | selectivity index over GABAA (GABAA and RDL receptors): 76 fold |
